Literature values in US7771757B2, “Nasal irrigation solutions and methods of using same” (Himalayan International Institute of Yoga Science and …, priority 2002, dated 2010).

Key:
[1] = system: staphylococci
[2] = system: pneumococci
[3] = system: streptococci
[4] = system: common cold; details: variously administered forms; in many cases

Row | Molecule | activity in vitro against the growth of organisms [1] | activity in vitro against the growth of organisms [2] | activity in vitro against the growth of organisms [3] | reduction of the duration of common cold symptoms [4]
1 | COc1ccc2cc3[n+](cc2c1OC)CCc1cc2c(cc1-3)OCO2 [berberine] | active | active | active | –
2 | zinc | – | – | – | by half
